Laboratory results: patent US20180170903A1, “PYRIDIN-3-YL ACETIC ACID DERIVATIVES AS INHIBITORS OF HUMAN IMMUNODEFICIENCY VIRUS REPLICATION” (ViiV HEALTHCARE UK (NO.5) LIMITED, priority 2015, published 2018)
Like-named read-outs stand apart in the source and are kept apart here.

Test system: NL-RLuc virus (recombinant HIV NL4-3 proviral clone with Renilla Luciferase) in MT-2 cells
Experiment: Inhibition of HIV Replication (NL-RLuc luciferase reporter virus, MT-2 cells)
Type: cell-based
Conditions: MT2, 120 h
Excerpt: Inhibition of HIV Replication:
A recombinant NL-RLuc proviral clone was constructed in which a section of the nef gene from NL4-3 was replaced with the Renilla Luciferase gene. This virus is fully infectious and can undergo multiple cycles of replication in cell culture. In addition, the luciferous reporter provides a simple and easy method for quantitating the extent of virus growth and consequently, the antiviral activity of test compounds. The plasmid pNLRLuc contains the proviral NL-Rluc DNA cloned into pUC 18 at the PvuII site. The NL-RLuc virus was prepared by transfection of 293T cells with the plasmid pNLRLuc. Transfections were performed using the LipofectAMINE PLUS kit from Invitrogen (Carlsbad, Calif.) according to the manufacturer and the virus generated was titered in MT-2 cells. For susceptibility analyses, the titrated virus was used to infect MT-2 cells in the presence of compound, and after 5 days of incubation, cells were processed and quantitated for virus growth by the amount of expressed luciferase. Assay media was RPMI 1640 supplemented with 10% heat inactivated fetal bovine serum (FBS), 100 units/ml penicillin G/100 units/ml streptomycin, 10 mM HEPES buffer pH 7.55 and 2 mM L-glutamine. The results from at least 2 experiments were used to calculate the EC50 values. Luciferase was quantitated using the Dual Luciferase kit from Promega (Madison, Wis.). Susceptibility of viruses to compounds was determined by incubation in the presence of serial dilutions of the compound. The 50% effective concentration (EC50) was calculated by using the exponential form of the median effect equation where (Fa)=1/[1+(ED50/drug conc.)^m](Johnson V A, Byington R T. Infectivity Assay. In Techniques in HIV Research. ed. Aldovini A, Walker B D. 71-76. New York: Stockton Press. 1990). Activity equal to A refers to a compound having an EC50≤100 nM, while B and C denote compounds having an EC50 between 100 nM and 1 uM (B) or >1 uM (C).

| SMILES | EC50 (read-out: Activity) [µM] | EC50 (read-out: EC50 μM) [µM] |
| --- | --- | --- |
| Cc1nc(C)c([C@H](OC(C)(C)C)C(=O)O)c(N2CCC(C)(C)CC2)c1-c1ccc(CN(Cc2ccc(F)cc2)C(=O)c2cccc(F)c2)cc1 [Example 41, (S)-2-(tert-butoxy)-2-(4-(4,4-dimethylpiperidin-1-yl)-5-(4-((3-fluoro-N-(4-fluorobenzyl)benzamido)methyl)phenyl)-2,6-dimethylpyridin-3-yl)acetic acid] | < 0.1 | 0.015 |
| Cc1nc(C)c([C@H](OC(C)(C)C)C(=O)O)c(N2CCC(C)(C)CC2)c1-c1ccc(CN(Cc2ccc(F)cc2)C(=O)C2CCC2)cc1 [Example 42, (S)-2-(tert-butoxy)-2-(4-(4,4-dimethylpiperidin-1-yl)-5-(4-((N-(4-fluorobenzyl)cyclobutanecarboxamido)methyl)phenyl)-2,6-dimethylpyridin-3-yl)acetic acid] | < 0.1 | – |
| Cc1ccccc1C(=O)N(Cc1ccc(F)cc1)Cc1ccc(-c2c(C)nc(C)c([C@H](OC(C)(C)C)C(=O)O)c2N2CCC(C)(C)CC2)cc1 [Example 43, (S)-2-(tert-butoxy)-2-(4-(4,4-dimethylpiperidin-1-yl)-5-(4-((N-(4-fluorobenzyl)-2-methylbenzamido)methyl)phenyl)-2,6-dimethylpyridin-3-yl)acetic acid] | < 0.1 | – |
| Cc1nc(C)c([C@H](OC(C)(C)C)C(=O)O)c(N2CCC(C)(C)CC2)c1-c1ccc(CN(Cc2ccc(F)cc2)C(=O)c2cccs2)cc1 [Example 44, (S)-2-(tert-butoxy)-2-(4-(4,4-dimethylpiperidin-1-yl)-5-(4-((N-(4-fluorobenzyl)thiophene-2-carboxamido)methyl)phenyl)-2,6-dimethylpyridin-3-yl)acetic acid] | < 0.1 | – |
| COc1ccc(C(=O)N(Cc2ccc(F)cc2)Cc2ccc(-c3c(C)nc(C)c([C@H](OC(C)(C)C)C(=O)O)c3N3CCC(C)(C)CC3)cc2)cc1 [Example 45, (S)-2-(tert-butoxy)-2-(4-(4,4-dimethylpiperidin-1-yl)-5-(4-((N-(4-fluorobenzyl)-4-methoxybenzamido)methyl)phenyl)-2,6-dimethylpyridin-3-yl)acetic acid] | < 0.1 | – |
| Cc1nc(C)c([C@H](OC(C)(C)C)C(=O)O)c(N2CCC(C)(C)CC2)c1-c1ccc(CN(Cc2ccc(F)cc2)C(=O)c2ccc(C(F)(F)F)cc2)cc1 [Example 46, (S)-2-(tert-butoxy)-2-(4-(4,4-dimethylpiperidin-1-yl)-5-(4-((N-(4-fluorobenzyl)-4-(trifluoromethyl)benzamido)methyl)phenyl)-2,6-dimethylpyridin-3-yl)acetic acid] | < 0.1 | 0.016 |
| Cc1nc(C)c([C@H](OC(C)(C)C)C(=O)O)c(N2CCC(C)(C)CC2)c1-c1ccc(COc2cccc(C(F)(F)F)c2)cc1 [Example 48, (S)-2-(tert-Butoxy)-2-(4-(4,4-dimethylpiperidin-1-yl)-2,6-dimethyl-5-(4-((3-(trifluoromethyl)phenoxy)methyl)phenyl)pyridin-3-yl)acetic acid] | < 0.1 | – |
| Cc1nc(C)c([C@H](OC(C)(C)C)C(=O)O)c(N2CCC(C)(C)CC2)c1-c1ccc(COC(C)(C)C)cc1 [Example 49, (S)-2-(tert-Butoxy)-2-(5-(4-(tert-butoxymethyl)phenyl)-4-(4,4-dimethylpiperidin-1-yl)-2,6-dimethylpyridin-3-yl)acetic acid] | < 0.1 | – |
| Cc1cc(OCc2ccc(-c3c(C)nc(C)c([C@H](OC(C)(C)C)C(=O)O)c3N3CCC(C)(C)CC3)cc2)ccc1Cl [Example 50, (S)-2-(tert-Butoxy)-2-(5-(4-((4-chloro-3-methylphenoxy)methyl)phenyl)-4-(4,4-dimethylpiperidin-1-yl)-2,6-dimethylpyridin-3-yl)acetic acid] | < 0.1 | – |
| Cc1nc(C)c([C@H](OC(C)(C)C)C(=O)O)c(N2CCC(C)(C)CC2)c1-c1ccc(COCc2ccc(F)cc2)cc1 [Example 51, (S)-2-(tert-Butoxy)-2-(4-(4,4-dimethylpiperidin-1-yl)-5-(4-(((4-fluorobenzyl)oxy)methyl)phenyl)-2,6-dimethylpyridin-3-yl)acetic acid] | > 1 | – |
| Cc1nc(C)c([C@H](OC(C)(C)C)C(=O)O)c(N2CCC(C)(C)CC2)c1-c1ccc(CSCc2ccc(F)cc2)cc1 [Example 52, (S)-2-(tert-Butoxy)-2-(4-(4,4-dimethylpiperidin-1-yl)-5-(4-(((4-fluorobenzyl)thio)methyl)phenyl)-2,6-dimethylpyridin-3-yl)acetic acid] | < 0.1 | – |
| Cc1nc(C)c([C@H](OC(C)(C)C)C(=O)O)c(N2CCC(C)(C)CC2)c1-c1ccc(CN2CCc3ccccc3C2)cc1 [Example 53, (S)-2-(tert-Butoxy)-2-(5-(4-((3,4-dihydroisoquinolin-2(1H)-yl)methyl)phenyl)-4-(4,4-dimethylpiperidin-1-yl)-2,6-dimethylpyridin-3-yl)acetic acid] | < 0.1 | 0.076 |
